From PMC9186531, “Biochemical and structural characterization of the flavodoxin-like domain of the Schizosaccharomyces japonicus putative tRNA ^Phe 4-demethylwyosine synthase Tyw1 in complex with FMN” (microPublication Biology, 2022) come the findings set out here.

This assay has as its target T1, Tyw1 30-251 (Schizosaccharomyces japonicus, UniProt B6K6D6).
T1 construct: flavodoxin-like domain with N-terminal extension, residues 30-251; N-terminal TRX-6His or MBP-6His tag with TEV site, tag cleaved; E. coli KRX; monomer; calculated mass 24940 Da, MS 25010 Da
T1 sequence (B6K6D6 30-251): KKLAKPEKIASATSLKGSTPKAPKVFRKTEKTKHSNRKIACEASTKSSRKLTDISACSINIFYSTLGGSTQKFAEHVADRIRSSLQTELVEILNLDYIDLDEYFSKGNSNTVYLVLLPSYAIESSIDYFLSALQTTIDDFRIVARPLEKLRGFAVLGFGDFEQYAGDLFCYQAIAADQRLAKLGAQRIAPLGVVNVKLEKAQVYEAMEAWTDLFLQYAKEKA
The assay can be described thus: X-ray crystal structure (molecular replacement, […] A). It counts as binding. The following applies: co-purified oxidized FMN; crystals pH 8.5, 288 K; unit occupancy.

As to `Cc1cc2nc3c(=O)[nH]c(=O)nc-3n(C[C@H](O)[C@H](O)[C@H](O)COP(=O)(O)O)c2cc1C` [FMN], the “X-ray crystal structure (molecular replacement, 1.5 A)” value is “FMN density was strong and was modeled with unit occupancy in both structures”.
